Reference: PubChem BioAssay (NCI)
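Values below derive from 48-hour exposures of cells grown in 96-well plates, with endpoints linearly interpolated between the two concentrations bracketing the appropriate inhibition level. Here, GI50 denotes the concentration required for 50% inhibition of growth. TGI marks complete inhibition of growth.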

How the values were obtained:
Test in all cases: inhibition of tumour cell growth, NCI panel, 48 h
MALME-3M melanoma = test system: MALME-3M melanoma
SK-MEL-2 melanoma = test system: SK-MEL-2 melanoma
786-0 renal = test system: 786-0 renal
SN12C renal = test system: SN12C renal
OVCAR-5 ovarian = test system: OVCAR-5 ovarian
HOP-62 NSCLC = test system: HOP-62 NSCLC
UACC-62 melanoma = test system: UACC-62 melanoma
UACC-257 melanoma = test system: UACC-257 melanoma
ACHN renal = test system: ACHN renal

Row | Compound | GI50 (MALME-3M melanoma) [µM] | TGI (MALME-3M melanoma) [µM] | GI50 (SK-MEL-2 melanoma) [µM] | TGI (SK-MEL-2 melanoma) [µM] | GI50 (786-0 renal) [µM] | TGI (786-0 renal) [µM] | GI50 (SN12C renal) [µM] | TGI (SN12C renal) [µM] | GI50 (OVCAR-5 ovarian) [µM] | TGI (OVCAR-5 ovarian) [µM] | GI50 (HOP-62 NSCLC) [µM] | TGI (HOP-62 NSCLC) [µM] | GI50 (UACC-62 melanoma) [µM] | TGI (UACC-62 melanoma) [µM] | GI50 (UACC-257 melanoma) [µM] | TGI (UACC-257 melanoma) [µM] | GI50 (ACHN renal) [µM] | TGI (ACHN renal) [µM]
1 | Cc1ccc2c(c1)Sc1c(ccc3ccccc13)N2 | > 100 | > 100 | > 100 | > 100 | > 100 | > 100 | > 100 | > 100 | > 100 | > 100 | > 100 | > 100 | 73.8 | > 100 | > 100 | > 100 | 55.5 | > 100
2 | NC12CC3CC(C1)CC(C(=O)O)(C3)C2 |  |  |  |  |  | > 100 |  | > 100 |  | > 100 |  | > 100 |  | > 100 |  | > 100 |  | > 100
3 | O=C(Nc1ccncc1)C(=O)c1cn(S(=O)(=O)c2cccc(F)c2)c2ccccc12 | 12.8 | > 100 | 10.3 | > 100 | 3.64 | > 100 | 5.25 | > 100 | > 100 | > 100 | 3.58 | 61 | 2.96 | > 100 | 13.5 | > 100 | 9.5 | > 100
4 | O=[N+]([O-])c1ccc(C=NC2CCCCC2)cc1 |  | > 100 |  | > 100 |  | > 100 |  | > 100 |  | > 100 |  | > 100 |  | > 100 |  | > 100 |  | > 100
5 | CCOC1Oc2ccc(C)cc2C(=O)/C1=C\Nc1ccc(C(N)=O)cc1 (stereo not given) |  |  | 34.4 | > 100 | 16.3 | 30.4 | 17.6 | 38.8 | 22 | 47.1 | 17.6 | 33.7 | 13.6 | 30.8 | 25.5 | 52.3 | 14.9 | 40.6
6 | CCCC1N2CCCCC2[C@@H]2c3[nH]c4ccccc4c3CCN12 (stereo not given in full) |  | > 100 |  | > 100 |  | > 100 |  | > 100 |  | > 100 |  | > 100 |  | > 100 |  | > 100 |  | > 100
7 | CN(C)CCNC(=O)c1cccc2ccc(-c3ccncc3)nc12 |  |  |  | 13.3 |  | 34.2 |  | 15.4 |  | 5.63 |  | 5.56 |  | 3.73 |  | 6.66 |  | 
8 | C#CCNC(=O)c1cccc2c1cc(C)n2-c1nc2c(c(NCc3ccccc3)n1)CCCC2 | 0.00311 | 0.0114 | 0.023 | 0.0627 | 0.0292 | 0.0788 | 0.0204 | 0.0689 | 0.0461 | 0.154 | 0.0308 | 0.114 | 0.0158 | 0.0359 |  |  | 0.0255 | 0.11
9 | Cc1cc(-c2cnn3c(NCC4CC(C)(O)C4)cc(Oc4cccnc4)nc23)ccc1C(=O)NC1CC1 (stereo not given) |  |  | 1.95 | > 100 | 3.71 | > 100 | 2.96 | > 100 | > 100 | > 100 | 8.57 | > 100 | 2.67 | > 100 | > 100 | > 100 | 1.29 | > 100
10 | C=C(C[C@](O)(C(=O)/C=C/c1ccc(Cl)cc1)C(=O)OC)c1ccccc1 | 12.4 | 26.5 | 13.3 | 27.1 | 1.66 | 3.24 | 2.41 | 6.1 | 3.48 | 13.1 | 2.72 | 9.03 | 2.03 | 4.58 | 13.1 | 25.8 | 2.17 | 5.2
11 | CC(C)(CO)N1CCN(C(=S)Nc2ccccc2)CC1 |  | > 100 |  | > 100 |  | > 100 |  | > 100 |  | > 100 |  | > 100 |  | > 100 |  | > 100 |  | > 100
12 | Cc1c(C(=O)C/C(=N/NC(=O)C[N+](C)(C)C)C(=O)Nc2ccc(Cl)cc2)[n+](=O)c2ccccc2n1O |  | > 100 |  | > 100 |  | > 100 |  | > 100 |  | > 100 |  | > 100 |  | > 100 |  | > 100 |  | > 100
13 | COCCCNC(=O)C1C(=O)C(=O)N(CCCOC)C1=O (stereo not given) |  | > 100 |  | > 100 |  | > 100 |  | > 100 |  | > 100 |  | > 100 |  | > 100 |  | > 100 |  | > 100
14 | O=C(O)C(CS)Nc1c2ccccc2nc2ccccc12 (stereo not given) |  | > 100 |  | > 100 |  | > 100 |  | > 100 |  | > 100 |  |  |  |  |  | > 100 |  | > 100
15 | O=C1c2ccccc2C(=O)N1CCc1ncc[nH]1 |  |  |  | > 100 |  | > 100 |  | > 100 |  | > 100 |  |  |  | > 100 |  | > 100 |  | > 100
16 | C[C@@H]1OC(=O)N2CCCC(=C3SCCCS3)C12 (stereo not given in full) |  | > 100 |  | > 100 |  | > 100 |  | > 100 |  | > 100 |  |  |  | > 100 |  | > 100 |  | > 100
17 | C/C(O)=C(\N=O)C(=O)Nc1ccc(Cl)cc1Cl |  | > 100 |  | > 100 |  | > 100 |  | > 100 |  | > 100 |  | > 100 |  | > 100 |  | > 100 |  | > 100
18 | O=C(O)CCNC1CCCCC1 | > 100 | > 100 | > 100 | > 100 | > 100 | > 100 | > 100 | > 100 | > 100 | > 100 | > 100 | > 100 | > 100 | > 100 | > 100 | > 100 | > 100 | > 100
